For one compound, Activity and inhibition results are on record in ChEMBL document CHEMBL5550160, “Leveraging a rationally designed veliparib-based anilide eliciting anti-leukemic effects for the design of pH-responsive polymer nanoformulation” (Eur J Med Chem, 2024).

The source made the active and inactive calls. The rule behind the calls is not given here.

Test [1] concerns the target T1, Polyamine deacetylase HDAC10 (Homo sapiens) (UniProt Q969S8).
T1 sequence (whole entry): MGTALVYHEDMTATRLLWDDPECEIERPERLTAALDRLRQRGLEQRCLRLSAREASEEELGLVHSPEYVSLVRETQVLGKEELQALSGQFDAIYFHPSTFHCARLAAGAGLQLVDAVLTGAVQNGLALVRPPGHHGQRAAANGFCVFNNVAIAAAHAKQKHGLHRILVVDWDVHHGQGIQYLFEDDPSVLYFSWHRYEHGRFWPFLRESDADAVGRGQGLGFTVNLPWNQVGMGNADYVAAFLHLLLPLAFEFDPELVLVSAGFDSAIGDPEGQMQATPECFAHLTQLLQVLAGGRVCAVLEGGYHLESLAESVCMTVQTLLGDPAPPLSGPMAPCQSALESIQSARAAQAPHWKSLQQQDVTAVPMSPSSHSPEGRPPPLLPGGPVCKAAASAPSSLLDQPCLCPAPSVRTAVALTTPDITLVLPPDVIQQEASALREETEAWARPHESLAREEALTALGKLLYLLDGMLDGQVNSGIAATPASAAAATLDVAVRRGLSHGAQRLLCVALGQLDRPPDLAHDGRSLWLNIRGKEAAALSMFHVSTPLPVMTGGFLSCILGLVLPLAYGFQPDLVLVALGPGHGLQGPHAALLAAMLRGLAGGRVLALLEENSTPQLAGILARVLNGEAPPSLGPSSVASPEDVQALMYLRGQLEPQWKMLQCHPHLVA
Kind of test: Inhibition of HDAC10 (unknown origin) assessed as residual activity at 4.12 x 10^-8M (reference value: 101.54%). The conditions noted are these: dose 4.12 10^-8M.

Test [2] has as its target T2, Protein deacetylase HDAC6 (Homo sapiens) (UniProt Q9UBN7).
T2 sequence (whole entry): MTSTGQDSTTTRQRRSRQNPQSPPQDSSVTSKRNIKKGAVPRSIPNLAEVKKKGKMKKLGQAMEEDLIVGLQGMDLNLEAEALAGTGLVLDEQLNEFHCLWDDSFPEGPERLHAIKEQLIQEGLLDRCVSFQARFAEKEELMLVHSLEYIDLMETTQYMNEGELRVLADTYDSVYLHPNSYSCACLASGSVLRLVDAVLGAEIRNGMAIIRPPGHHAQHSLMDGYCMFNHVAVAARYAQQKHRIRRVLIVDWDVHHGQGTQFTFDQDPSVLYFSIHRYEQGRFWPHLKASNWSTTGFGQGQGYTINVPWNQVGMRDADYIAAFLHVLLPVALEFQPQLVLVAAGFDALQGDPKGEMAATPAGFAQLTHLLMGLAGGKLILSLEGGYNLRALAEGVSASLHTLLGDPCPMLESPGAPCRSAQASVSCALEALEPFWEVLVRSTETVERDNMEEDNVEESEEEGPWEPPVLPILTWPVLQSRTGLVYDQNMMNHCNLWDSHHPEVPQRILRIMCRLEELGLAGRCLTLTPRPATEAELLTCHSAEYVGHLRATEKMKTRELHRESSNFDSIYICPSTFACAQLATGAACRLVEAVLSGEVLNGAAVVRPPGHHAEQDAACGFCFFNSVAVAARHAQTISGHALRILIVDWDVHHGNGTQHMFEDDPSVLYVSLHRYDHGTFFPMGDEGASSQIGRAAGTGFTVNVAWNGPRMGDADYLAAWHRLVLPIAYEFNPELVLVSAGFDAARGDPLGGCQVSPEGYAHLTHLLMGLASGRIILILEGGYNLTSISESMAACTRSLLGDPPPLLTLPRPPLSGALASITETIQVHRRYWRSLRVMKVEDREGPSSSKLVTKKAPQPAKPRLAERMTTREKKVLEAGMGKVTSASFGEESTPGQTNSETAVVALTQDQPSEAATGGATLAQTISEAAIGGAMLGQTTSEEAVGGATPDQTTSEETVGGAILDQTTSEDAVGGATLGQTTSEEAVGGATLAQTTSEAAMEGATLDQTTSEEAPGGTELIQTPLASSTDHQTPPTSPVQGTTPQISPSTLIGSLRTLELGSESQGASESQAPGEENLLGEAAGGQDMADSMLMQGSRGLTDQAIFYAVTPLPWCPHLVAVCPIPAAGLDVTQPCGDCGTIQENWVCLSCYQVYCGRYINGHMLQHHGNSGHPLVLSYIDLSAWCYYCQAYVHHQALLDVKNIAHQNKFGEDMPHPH
Kind of test: Inhibition of HDAC6 (unknown origin) using p53 residues 379 to 382 [RHKK(Ac)] as fluorogenic substrate assessed as residual activity at 4.12 x 10^-8M (reference value: 101.06%). Particulars: dose 4.12 10^-8M.

For test [3], the target named is T1, Polyamine deacetylase HDAC10 (Homo sapiens). Kind of test: Inhibition of HDAC10 (unknown origin) assessed as residual activity at 3.70 x 10^-7M (reference value: 101.54%). The conditions noted are these: dose 3.7 10^-7M.
For test [4], the system named is HL-60. Kind of test: Induction of cell cycle arrest in G0/G1 phase in human HL-60 cells assessed as downregulation of p-AKT protein expression at 0.5 to 1 times IC50 by Western blot analysis. The test is classed as functional, cell-based. For orientation: Immunoblotting shows a protein as a band on a membrane.
The next test has as its target Histone deacetylase 1 (Homo sapiens, UniProt Q13547). Kind of test: Inhibition of HDAC1 (unknown origin) using p53 residues 379 to 382 [RHKK(Ac)] as fluorogenic substrate assessed as residual activity at 1.52 x 10^-9M (reference value: 98.06%). The conditions noted are these: dose 1.52 10^-9M.
Test [5] has as its system HL-60. Kind of test: Downregulation of HDAC2 protein expression in human HL-60 cells by Western blot analysis. Type of test: functional, cell-based. Particulars: dose 0.2-5 µM.
Test [6] addresses T3, Histone deacetylase 8 (Homo sapiens) (UniProt Q9BY41).
T3 sequence (whole entry): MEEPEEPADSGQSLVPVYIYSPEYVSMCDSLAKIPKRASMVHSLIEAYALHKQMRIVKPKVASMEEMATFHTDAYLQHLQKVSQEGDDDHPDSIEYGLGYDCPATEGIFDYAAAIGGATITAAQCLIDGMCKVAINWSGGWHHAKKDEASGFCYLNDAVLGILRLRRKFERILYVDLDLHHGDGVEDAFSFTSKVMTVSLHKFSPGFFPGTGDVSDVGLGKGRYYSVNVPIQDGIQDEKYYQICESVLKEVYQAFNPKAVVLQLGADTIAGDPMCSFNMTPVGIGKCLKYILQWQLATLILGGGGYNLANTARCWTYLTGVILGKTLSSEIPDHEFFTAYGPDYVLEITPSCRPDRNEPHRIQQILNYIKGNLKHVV
Briefly: Inhibition of HDAC8 (unknown origin) assessed as residual activity at 3.33 x 10^-6M (reference value: 100%). Particulars: dose 3.33 10^-6M.

Test [7] relates to HL-60. Kind of test: Induction of autophagy in human HL-60 cells assessed as conversion of LC3-I to LC3-II at 0.5 to 1 times IC50 by Western blot analysis. Type of test: functional, cell-based.
The target in test [8] is Class 1 histone deacetylase (Homo sapiens) (UniProt Q13547+O15379+Q92769+Q9BY41). Kind of test: Inhibition of class 1 HDAC in human HL-60 cells assessed as upregulation of acetyl histone H3 protein expression 0.5 to 1 times IC50 by Western blot analysis. Type of test: cell-based.

Chain of Histone deacetylase 1 (Q13547 whole entry, the tested form may be a part): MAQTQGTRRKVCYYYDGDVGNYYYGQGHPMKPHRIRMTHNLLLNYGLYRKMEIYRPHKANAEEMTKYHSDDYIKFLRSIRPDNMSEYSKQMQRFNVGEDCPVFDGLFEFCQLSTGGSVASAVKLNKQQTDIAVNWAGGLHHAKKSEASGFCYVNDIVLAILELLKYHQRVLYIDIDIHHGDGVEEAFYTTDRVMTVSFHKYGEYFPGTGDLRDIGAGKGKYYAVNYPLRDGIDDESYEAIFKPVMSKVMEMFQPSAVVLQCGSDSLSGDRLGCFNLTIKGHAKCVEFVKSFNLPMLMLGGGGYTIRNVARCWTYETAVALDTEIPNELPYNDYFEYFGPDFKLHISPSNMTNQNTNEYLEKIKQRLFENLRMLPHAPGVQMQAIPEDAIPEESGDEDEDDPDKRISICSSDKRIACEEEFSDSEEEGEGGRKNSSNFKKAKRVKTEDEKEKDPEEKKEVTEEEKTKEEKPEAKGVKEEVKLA

On to `NC(=O)c1cccc2[nH]c(-c3ccc(NCc4ccc(C(=O)Nc5ccccc5N)cc4)cc3)nc12`, for which the Activity in [1] is 102%; in test [2], 99.2%; in [3], 94.8%; on Histone deacetylase 1 it was 95.5%; in the test with HL-60 [5], “Dose-Dependent Effect”; in test [6], 96.9%. Further, the Activity result in the test with HL-60 [7] was “Dose-Dependent Effect”. Further, the outcome with HL-60 [4] was Active. Besides, in [8], the inhibition result is “Active”.
